Source: patent US8461328B2, “Tricyclic heterocyclic compounds, compositions and methods of use thereof” (Genentech, Inc., priority 2010, dated 2013)

Experiments:
Format in all cases: biochemical
TYK2 = molecular target: T1, TYK2 (Homo sapiens, UniProt P29597); assay: TYK2 inhibition (Table 4)
T1 construct: made in house; host or cells: SF9 insect cells (baculovirus)
T1 sequence (P29597 873-1187): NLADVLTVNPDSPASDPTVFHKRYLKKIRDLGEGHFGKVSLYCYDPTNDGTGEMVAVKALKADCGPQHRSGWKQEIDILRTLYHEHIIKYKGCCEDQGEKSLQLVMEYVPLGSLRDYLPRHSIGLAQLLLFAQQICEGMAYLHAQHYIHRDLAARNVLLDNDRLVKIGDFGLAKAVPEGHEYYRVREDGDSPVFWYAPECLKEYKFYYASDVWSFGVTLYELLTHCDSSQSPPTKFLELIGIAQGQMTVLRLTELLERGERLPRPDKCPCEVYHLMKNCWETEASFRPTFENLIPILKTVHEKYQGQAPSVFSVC

JAK3 = molecular target: T2, JAK3 (Homo sapiens, UniProt P52333); assay: JAK3 inhibition (Table 4); details: read-out: JAK3 Ki
T2 construct: made in house; host or cells: SF9 insect cells (baculovirus)
T2 sequence (P52333 783-1124): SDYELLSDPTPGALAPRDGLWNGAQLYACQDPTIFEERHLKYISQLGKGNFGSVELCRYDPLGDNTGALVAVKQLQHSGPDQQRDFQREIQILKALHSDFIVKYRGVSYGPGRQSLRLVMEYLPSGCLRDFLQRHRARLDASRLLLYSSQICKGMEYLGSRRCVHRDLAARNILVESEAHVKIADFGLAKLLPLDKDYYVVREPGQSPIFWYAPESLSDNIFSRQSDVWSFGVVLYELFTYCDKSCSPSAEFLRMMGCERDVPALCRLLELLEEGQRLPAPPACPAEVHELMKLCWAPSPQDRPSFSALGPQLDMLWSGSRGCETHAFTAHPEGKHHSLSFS

JAK1 = molecular target: T3, JAK1 (Homo sapiens, UniProt P23458); assay: JAK1 inhibition (Table 4); details: read-out: JAK1 Ki
T3 construct: made in house; host or cells: SF9 insect cells (baculovirus)
T3 sequence (P23458 852-1154): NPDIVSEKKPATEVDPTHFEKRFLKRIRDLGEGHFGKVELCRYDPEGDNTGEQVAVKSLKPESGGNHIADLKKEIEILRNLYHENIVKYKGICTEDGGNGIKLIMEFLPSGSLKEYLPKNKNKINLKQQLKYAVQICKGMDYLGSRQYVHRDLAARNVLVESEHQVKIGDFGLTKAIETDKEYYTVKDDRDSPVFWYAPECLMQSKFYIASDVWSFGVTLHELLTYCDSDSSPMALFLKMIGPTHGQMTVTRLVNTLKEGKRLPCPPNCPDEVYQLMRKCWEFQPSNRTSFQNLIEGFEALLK

JAK2 = molecular target: T4, JAK2 (Homo sapiens, UniProt O60674); assay: JAK2 inhibition (Table 4); details: read-out: JAK2 Ki
T4 construct: made in house; host or cells: SF9 insect cells (baculovirus)
T4 sequence (O60674 812-1132): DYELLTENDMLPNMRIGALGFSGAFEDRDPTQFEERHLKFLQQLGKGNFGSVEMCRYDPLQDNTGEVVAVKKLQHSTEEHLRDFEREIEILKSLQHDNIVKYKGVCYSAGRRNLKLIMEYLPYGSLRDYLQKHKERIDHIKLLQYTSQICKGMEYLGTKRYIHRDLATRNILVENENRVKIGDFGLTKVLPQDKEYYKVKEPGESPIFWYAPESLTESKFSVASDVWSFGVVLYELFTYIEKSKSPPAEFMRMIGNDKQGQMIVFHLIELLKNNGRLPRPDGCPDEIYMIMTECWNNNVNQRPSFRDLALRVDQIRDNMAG

Row | SMILES | Ki (TYK2) [µM] | Ki (JAK3) [µM] | Ki (JAK1) [µM] | Ki (JAK2) [µM]
1 | CC(O)c1nc2cnc3[nH]ccc3c2n1C1CC2CCC1O2 (stereo not drawn) [Example 848, endo-1-[1-(7-Oxa-bicyclo[2.2.1]hept-2-yl)-1,6-dihydro-1,3,5,6-tetraaza-as-indacen-2-yl]-ethanol] | 0.216 | 0.0719 | 0.12 | 0.156
2 | C[C@@H](O)c1nc2cnc3[nH]ccc3c2n1[C@@H]1CCCN(C(=O)C2CC2)C1 [Example 794, Cyclopropyl-{(R)-3-[2-((R)-1-hydroxy-ethyl)-6H-1,3,5,6-tetraaza-as-indacen-1-yl]-piperidin-1-yl}-methanone] | 0.42 | 1.23 | 0.116 | 0.886
3 | O=C(O)[C@H]1C[C@@H](n2cnc3cnc4[nH]ccc4c32)C1 [Example 484, 3-(6H-1,3,5,6-Tetraaza-as-indacen-1-yl)-cyclobutanecarboxylic acid] | 1.29 | 0.323 | 0.441 | 0.181
4 | C[C@@H](O)c1nc2cnc3[nH]ccc3c2n1C1CCN(C2COC2)CC1 [Example 832, (R)-1-[1-(1-Oxetan-3-yl-piperidin-4-yl)-1,6-dihydro-1,3,5,6-tetraaza-as-indacen-2-yl]-ethanol] | 0.493 | 0.516 | 0.0555 | 0.428
5 | COCCN(C)C(=O)NC1CCC(n2cnc3cnc4[nH]ccc4c32)C1 (racemic) [Example 739, 1-(2-Methoxy-ethyl)-1-methyl-3-[3-(6H-1,3,5,6-tetraaza-as-indacen-1-yl)-cyclopentyl]-urea] | 0.536 | 0.299 | 0.0213 | 0.0538
6 | N#CCCN1CCC(n2c(CCn3cncn3)nc3cnc4[nH]ccc4c32)CC1 [Example 386, 3-{4-[2-(2-[1,2,4]Triazol-1-yl-ethyl)-6H-1,3,5,6-tetraaza-as-indacen-1-yl]-piperidin-1-yl}-propionitrile] | 0.319 | 0.0792 | 0.0178 | 0.0643
7 | Cc1ccnn1CCc1nc2cnc3[nH]ccc3c2n1C1CCN(CCC#N)CC1 [Example 410, 3-(4-{2-[2-(5-Methyl-pyrazol-1-yl)-ethyl]-6H-1,3,5,6-tetraaza-as-indacen-1-yl}-piperidin-1-yl)-propionitrile] | 0.315 | 0.244 | 0.0249 | 0.0816
8 | CCN1CCC(n2c(CCNC(C)=O)nc3cnc4[nH]ccc4c32)C(F)(F)C1 (stereo not shown) [Example 807, N-{2-[1-(1-Ethyl-3,3-difluoro-piperidin-4-yl)-1,6-dihydro-1,3,5,6-tetraaza-as-indacen-2-yl]-ethyl}-acetamide] | 0.257 | 0.0159 | 0.00378 | 0.0347
9 | COC(=O)N1CCC(n2c([C@@H](C)O)nc3cnc4[nH]ccc4c32)CC1 [Example 929, 4-[2-((R)-1-Hydroxy-ethyl)-6H-1,3,5,6-tetraaza-as-indacen-1-yl]-piperidine-1-carboxylic acid methyl ester] | 0.281 | 0.185 | 0.106 | 0.578
10 | Cc1nc2ncccn2c1CN1CCC(n2c([C@@H](C)O)nc3cnc4[nH]ccc4c32)CC1 [Example 901, (R)-1-{1-[1-(2-Methyl-imidazo[1,2-a]pyrimidin-3-ylmethyl)-piperidin-4-yl]-1,6-dihydro-1,3,5,6-tetraaza-as-indacen-2-yl}-ethanol] | 0.223 | 0.0725 | 0.025 | 0.139
11 | CC(C)(C)OC(=O)N1CCCC[C@@H]1CN[C@H]1CC[C@H](n2cnc3cnc4[nH]ccc4c32)CC1 [Example 563, trans (R)-2-{[4-(6H-1,3,5,6-Tetraaza-as-indacen-1-yl)-cyclohexylamino]-methyl}-piperidine-1-carboxylic acid tert-butyl ester] | 3.32 | 2.36 | 0.091 | 0.611
12 | c1ccc(CN2CCC(n3nnc4cnc5[nH]ccc5c43)CC2)cc1 [Example 66, 1-(1-Benzyl-piperidin-4-yl)-1,6-dihydro-1,2,3,5,6-pentaaza-as-indacene] | 0.24 | 0.0683 | 0.00715 | 0.00986
13 | CS(=O)(=O)N1CCC(n2c(-c3cccnc3)nc3cnc4[nH]ccc4c32)CC1 [Example 361, 1-(1-Methanesulfonyl-piperidin-4-yl)-2-pyridin-3-yl-1,6-dihydro-1,3,5,6-tetraaza-as-indacene] | 0.732 | 0.354 | 0.379 | 0.248
14 | Cc1nc2cnc3[nH]ccc3c2n1C1CCc2cn[nH]c2C1 (racemic) [Example 488] | 0.188 | 0.087 | 0.0319 | 0.0371
15 | COCC(=O)N1CCC(n2cnc3cnc4[nH]ccc4c32)CC1 [Example 192, 2-Methoxy-1-[4-(6H-1,2,3,5,6-tetraaza-as-indacen-1-yl)-piperidin-1-yl]-ethanone] | 0.388 | 0.401 | 0.0245 | 0.0513
16 | Cc1nc2cnc3[nH]ccc3c2n1C(C)CCO (racemic) [Example 416, 3-(2-Methyl-6H-1,3,5,6-tetraaza-as-indacen-1-yl)-butan-1-ol] | 0.339 | 0.0488 | 0.0336 | 0.126

Stronger by Ki (TYK2), values ahead:

Row | Ki (TYK2) [µM] | Ki (JAK3) [µM] | Ki (JAK1) [µM] | Ki (JAK2) [µM] | SMILES
17 | 0.0462 | 0.0554 | 0.00398 | 0.0663 | C[C@@H](O)c1nc2cnc3[nH]ccc3c2n1[C@@H]1CCCN(C(=O)CC#N)C1 [Example 661, 3-{(R)-3-[2-((R)-1-Hydroxy-ethyl)-6H-1,2,3,5,6-tetraaza-as-indacen-1-yl]-piperidin-1-yl}-3-oxo-propionitrile]
18 | 0.0391 | 0.233 | 0.00487 | 0.0738 | C[C@@H](O)c1nc2cnc3[nH]ccc3c2n1C1CCC(n2cncn2)CC1 (stereo partly drawn) [Example 779, (R)-1-[1-(4-[1,2,4]triazol-1-yl-cyclohexyl)-1,6-dihydro-1,3,5,6-tetraaza-as-indacen-2-yl]-ethanol]
19 | 0.177 | 0.00896 | 0.00283 | 0.0158 | Cc1nc2cnc3[nH]ccc3c2n1C1CCC(NC(=O)N(C)CC(F)(F)F)CC1 (stereo not shown) [Example 749, 1-methyl-3-[4-(2-methyl-6H 1,3,5,6-tetraaza-as-indacen-1-yl)-cyclohexyl]-1-(2,2,2-trifluoro-ethyl)-urea]
20 | 0.0612 | 0.0186 | 0.00473 | 0.0235 | N#CCCN1CCC(n2c(CNC(=O)c3cccnc3)nc3cnc4[nH]ccc4c32)CC1 [Example 494, N-{1-[1-(2-Cyano-ethyl)-piperidin-4-yl]-1,6-dihydro-1,3,5,6-tetraaza-as-indacen-2-ylmethyl}-nicotinamide]
21 | 0.0321 | 0.0741 | 0.00641 | 0.0137 | OC1(C2CC2)CCC(n2cnc3cnc4[nH]ccc4c32)CC1 (stereo not drawn) [Example 995, Trans-1-Cyclopropyl-4-(6H-1,3,5,6-tetraaza-as-indacen-1-yl)-cyclohexanol]
22 | 0.0413 | 0.0585 | 0.00145 | 0.0128 | Cc1nc2cnc3[nH]ccc3c2n1C1(C)CCN(S(C)(=O)=O)CC1 [Example 580, 1-(1-Methanesulfonyl-4-methyl-piperidin-4-yl)-2-methyl-1,6-dihydro-1,2,3,5,6-tetraaza-as-indacene]
23 | 0.149 | 0.119 | 0.00707 | 0.148 | CCN1CC[C@@H](n2c([C@@H](C)O)nc3cnc4[nH]ccc4c32)[C@@H](F)C1 [Example 868, (R)-1-[1-((3S,4R)-1-Ethyl-3-fluoro-piperidin-4-yl)-1,6-dihydro-1,3,5,6-tetraaza-as-indacen-2-yl]-ethanol]
24 | 0.0888 | 0.018 | 0.00248 | 0.00484 | c1cncc(CN2CCC(n3cnc4cnc5[nH]ccc5c43)CC2)c1 [Example 50, 1-(1-Pyridin-3-ylmethyl-piperidin-4-yl)-1,6-dihydro-1,3,5,6-tetraaza-as-indacene]
25 | 0.0652 | 0.0598 | 0.00291 | 0.0486 | N#CCN1CCC(N[C@H]2CC[C@H](n3cnc4cnc5[nH]ccc5c43)CC2)CC1 [Example 568, trans {4-[4-(6H-1,3,5,6-Tetraaza-as-indacen-1-yl)-cyclohexylamino]-piperidin-1-yl}-acetonitrile]
26 | 0.00073 | 0.00188 | 0.00099 | 0.0104 | C[C@@H](O)c1nc2cnc3[nH]ccc3c2n1C1CCC(C#N)CC1 (stereo partly drawn) [Example 776, 4-[2-((R)-1-Hydroxy-ethyl)-6H-1,3,5,6-tetraaza-as-indacen-1-yl]-cyclohexanecarbonitrile]
27 | 0.114 | 0.0297 | 0.0153 | 0.0449 | O[C@H]1CC[C@H](n2cnc3cnc4[nH]ccc4c32)C1 [Example 712, (1S,3S)-3-(6H-1,2,3,5,6-Tetraaza-as-indacen-1-yl)-cyclopentanol]
28 | 0.0903 | 0.0908 | 0.00769 | 0.0196 | CC(C)c1nccn1CCc1nc2cnc3[nH]ccc3c2n1C1CCN(CCC#N)CC1 [Example 816, 3-(4-{2-[2-(2-Isopropyl-imidazol-1-yl)-ethyl]-6H-1,3,5,6-tetraaza-as-indacen-1-yl}-piperidin-1-yl)-propionitrile]
